Measured values taken from the NIST ThermoML archive (doi:10.1016/j.jct.2016.02.016).

What was measured:
[1] = refractive index (Na D-line) (dimensionless); xn = mol fraction of the nth substance listed; conditions: 100 kPa, Liquid, Standard Abbe refractometry
[2] = xn = mol fraction of the nth substance listed; conditions: 100 kPa, Liquid; for speed of sound: Frequency=3 MHz, Sing-around technique in a fixed-path interferometer; for mass density: Vibrating tube method

CC(C)=O [acetone] + CN(C)C=O
Conditions | mass density, [2] [kg/m3] | refractive index, [1] | speed of sound, [2] [m/s]
293.15 K, x2 = 0 | 790.19 | 1.35845 | 1183.6
293.15 K, x2 = 0.0503 | 799.565 | 1.36286 | 1200.1
293.15 K, x2 = 0.1057 | 809.645 | 1.3677 | 1218
293.15 K, x2 = 0.1529 | 818.017 | 1.37155 | 1232.9
293.15 K, x2 = 0.1992 | 826.191 | 1.37532 | 1247.6
293.15 K, x2 = 0.2475 | 834.489 | 1.37922 | 1262.6
293.15 K, x2 = 0.2981 | 843.136 | 1.38311 | 1278.3
293.15 K, x2 = 0.3458 | 851.059 | 1.38685 | 1292.6
293.15 K, x2 = 0.3942 | 859.037 | 1.3905 | 1307.4
293.15 K, x2 = 0.4516 | 868.376 | 1.39472 | 1324.6
293.15 K, x2 = 0.4973 | 875.647 | 1.398 | 1338.1
293.15 K, x2 = 0.5476 | 883.523 | 1.40156 | 1352.9
293.15 K, x2 = 0.599 | 891.359 | 1.40511 | 1367.5
293.15 K, x2 = 0.6521 | 899.454 | 1.40867 | 1382.9
293.15 K, x2 = 0.7051 | 907.302 | 1.41226 | 1397.8
293.15 K, x2 = 0.7538 | 914.504 | 1.41537 | 1411.4
293.15 K, x2 = 0.8063 | 921.993 | 1.41877 | 1425.7
293.15 K, x2 = 0.8441 | 927.346 | 1.42113 | 1436
293.15 K, x2 = 0.9022 | 935.518 | 1.42474 | 1451.7
293.15 K, x2 = 0.9471 | 941.723 | 1.42742 | 1463.7
298.15 K, x2 = 0 | 784.43 | 1.35386 | 1163.6
298.15 K, x2 = 0.05 | 793.781 | 1.35901 | 1180.1
298.15 K, x2 = 0.127 | 807.814 | 1.3664 | 1205.5
298.15 K, x2 = 0.1485 | 811.673 | 1.36834 | 1212.5
298.15 K, x2 = 0.1908 | 819.252 | 1.37223 | 1226.2
298.15 K, x2 = 0.2492 | 829.349 | 1.37711 | 1244.6
298.15 K, x2 = 0.297 | 837.55 | 1.38103 | 1259.6
298.15 K, x2 = 0.3399 | 844.898 | 1.38441 | 1273.1
298.15 K, x2 = 0.3997 | 854.838 | 1.38893 | 1291.5
298.15 K, x2 = 0.4461 | 862.361 | 1.39235 | 1305.3
298.15 K, x2 = 0.4978 | 870.632 | 1.39595 | 1320.8
298.15 K, x2 = 0.549 | 878.71 | 1.39951 | 1336.2
298.15 K, x2 = 0.5893 | 884.968 | 1.40233 | 1348.1
298.15 K, x2 = 0.6413 | 892.941 | 1.40581 | 1363.3
298.15 K, x2 = 0.6822 | 898.928 | 1.40851 | 1374.7
298.15 K, x2 = 0.7435 | 908.066 | 1.41236 | 1392.3
298.15 K, x2 = 0.7945 | 915.398 | 1.41552 | 1406.4
298.15 K, x2 = 0.8342 | 921.109 | 1.41805 | 1417.5
298.15 K, x2 = 0.8801 | 927.621 | 1.4209 | 1430.1
298.15 K, x2 = 0.9377 | 935.649 | 1.42451 | 1445.8
303.15 K, x2 = 0 | 778.63 | – | 1139.9
303.15 K, x2 = 0.0571 | 789.325 | – | 1159
303.15 K, x2 = 0.1075 | 798.734 | – | 1175.8
303.15 K, x2 = 0.148 | 805.999 | – | 1188.9
303.15 K, x2 = 0.2001 | 815.316 | – | 1205.7
303.15 K, x2 = 0.2528 | 824.518 | – | 1222.4
303.15 K, x2 = 0.3003 | 832.657 | – | 1237.3
303.15 K, x2 = 0.3487 | 840.866 | – | 1252.5
303.15 K, x2 = 0.392 | 848.12 | – | 1265.8
303.15 K, x2 = 0.4547 | 858.369 | – | 1284.8
303.15 K, x2 = 0.4991 | 865.505 | – | 1298.1
303.15 K, x2 = 0.5422 | 872.357 | – | 1310.9
303.15 K, x2 = 0.6046 | 882.041 | – | 1329.2
303.15 K, x2 = 0.6507 | 889.133 | – | 1342.6
303.15 K, x2 = 0.6986 | 896.27 | – | 1356.3
303.15 K, x2 = 0.7493 | 903.843 | – | 1370.7
303.15 K, x2 = 0.7975 | 910.848 | – | 1384.2
303.15 K, x2 = 0.8442 | 917.613 | – | 1397.1
303.15 K, x2 = 0.8972 | 925.06 | – | 1411.5
303.15 K, x2 = 0.9411 | 931.137 | – | 1423.4

CCC(C)=O [butanone] + CN(C)C=O
Conditions | mass density, [2] [kg/m3] | refractive index, [1] | speed of sound, [2] [m/s]
293.15 K, x2 = 0 | 805.06 | 1.37872 | 1212.6
293.15 K, x2 = 0.0482 | 811.508 | 1.3812 | 1224.5
293.15 K, x2 = 0.1051 | 819.281 | 1.3841 | 1238.6
293.15 K, x2 = 0.148 | 825.263 | 1.38629 | 1249.6
293.15 K, x2 = 0.1915 | 831.169 | 1.38843 | 1262.8
293.15 K, x2 = 0.253 | 839.789 | 1.39163 | 1276.1
293.15 K, x2 = 0.3008 | 846.349 | 1.39408 | 1288.2
293.15 K, x2 = 0.3386 | 851.673 | 1.39604 | 1298
293.15 K, x2 = 0.3915 | 859.222 | 1.39872 | 1311.8
293.15 K, x2 = 0.4432 | – | 1.40144 | –
293.15 K, x2 = 0.4887 | 873.095 | 1.40384 | 1337.4
293.15 K, x2 = 0.5514 | 882.097 | – | 1354.1
293.15 K, x2 = 0.5536 | – | 1.40712 | –
293.15 K, x2 = 0.6017 | 889.386 | 1.40972 | 1367.5
293.15 K, x2 = 0.6519 | 896.759 | 1.41237 | 1381.2
293.15 K, x2 = 0.7023 | 904.135 | 1.41495 | 1394.9
293.15 K, x2 = 0.7525 | 911.634 | 1.41752 | 1408.8
293.15 K, x2 = 0.8002 | 918.668 | 1.42009 | 1421.7
293.15 K, x2 = 0.8492 | 926.05 | 1.42274 | 1435.2
293.15 K, x2 = 0.9032 | 934.175 | 1.42553 | 1450.2
293.15 K, x2 = 0.9477 | 940.9 | 1.42785 | 1462.4
298.15 K, x2 = 0 | 799.78 | 1.37605 | 1191.5
298.15 K, x2 = 0.0519 | 806.811 | 1.37886 | 1204.4
298.15 K, x2 = 0.1048 | 814.011 | 1.38152 | 1217.5
298.15 K, x2 = 0.1506 | 820.379 | 1.38397 | 1229.3
298.15 K, x2 = 0.1948 | 826.51 | 1.38631 | 1240.5
298.15 K, x2 = 0.2482 | 834.008 | 1.38913 | 1254.4
298.15 K, x2 = 0.3032 | 841.593 | 1.39213 | 1268.4
298.15 K, x2 = 0.3543 | 848.769 | 1.39479 | 1281.6
298.15 K, x2 = 0.3962 | 854.829 | 1.39697 | 1292.8
298.15 K, x2 = 0.4495 | 862.429 | 1.39982 | 1306.9
298.15 K, x2 = 0.4916 | 868.442 | 1.40199 | 1318
298.15 K, x2 = 0.5536 | 877.384 | 1.40522 | 1334.6
298.15 K, x2 = 0.5946 | 883.427 | 1.40739 | 1345.8
298.15 K, x2 = 0.6572 | 892.579 | 1.41063 | 1362.3
298.15 K, x2 = 0.7034 | 899.388 | 1.41301 | 1375.5
298.15 K, x2 = 0.7461 | 905.863 | 1.41516 | 1387.6
298.15 K, x2 = 0.7965 | 913.261 | 1.41779 | 1401.3
298.15 K, x2 = 0.8488 | 921.083 | 1.42048 | 1415.8
298.15 K, x2 = 0.894 | 928.027 | 1.42276 | 1428.6
298.15 K, x2 = 0.9427 | 935.405 | 1.42542 | 1442.1
303.15 K, x2 = 0 | 794.55 | 1.37351 | 1172
303.15 K, x2 = 0.0496 | 801.341 | 1.37623 | 1184.6
303.15 K, x2 = 0.1068 | 809.288 | 1.37911 | 1199.1
303.15 K, x2 = 0.1478 | 814.925 | 1.38113 | 1209.5
303.15 K, x2 = 0.1836 | 819.8 | 1.38314 | 1218.5
303.15 K, x2 = 0.2521 | 829.427 | 1.38686 | 1236.4
303.15 K, x2 = 0.2943 | 835.351 | 1.38911 | 1248.2
303.15 K, x2 = 0.3532 | 843.706 | 1.39202 | 1262.8
303.15 K, x2 = 0.3938 | 849.516 | 1.39409 | 1273.5
303.15 K, x2 = 0.4538 | 858.11 | 1.39728 | 1289.4
303.15 K, x2 = 0.4969 | 864.319 | 1.39967 | 1301.1
303.15 K, x2 = 0.5486 | 871.924 | 1.40242 | 1315.5
303.15 K, x2 = 0.6028 | 879.882 | 1.40517 | 1330.1
303.15 K, x2 = 0.6517 | 886.955 | 1.4078 | 1343.2
303.15 K, x2 = 0.7023 | 894.541 | 1.4105 | 1357.4
303.15 K, x2 = 0.7483 | 901.328 | 1.41287 | 1369.9
303.15 K, x2 = 0.7995 | 908.942 | 1.41553 | 1384.1
303.15 K, x2 = 0.8514 | 916.844 | 1.41823 | 1399
303.15 K, x2 = 0.8982 | 923.832 | 1.42066 | 1410.9
303.15 K, x2 = 0.946 | 931.082 | 1.4232 | 1425.2
